ChEMBL document CHEMBL1158313, “Isolation of New Steroidal Hemiacetals from the Gorgonian Euplexaura anastomosans” (J Nat Prod, 1996)
Active and inactive are the calls of the source. The rule behind the calls is not given here.

Columns and labels:
P388 = experiment: Cytotoxicity against mouse P388 cells; type: functional, cell-based
Artemia = experiment: Toxicity against brine shrimp larvae; type: organism-based; conditions: in vivo

CC(C)[C@H]1CC[C@H]([C@@]2(O)CC[C@H]3[C@@H]4CCC5=CC(=O)C=C[C@]5(C)[C@H]4CC[C@@]32C)[C@H](O)O1 [ANASTOMOSACETAL A]
Activity (P388): inactive
Activity (Artemia): Non-toxic

CC(C)[C@H]1CC[C@H]([C@@]2(O)CC[C@H]3[C@@H]4CC[C@H]5CC(=O)C=C[C@]5(C)[C@H]4CC[C@@]32C)[C@H](O)O1 [ANASTOMOSACETAL B]
Activity (P388): inactive
Activity (Artemia): Non-toxic

CC(C)[C@H]1CC[C@H]([C@@]2(O)CC[C@H]3[C@@H]4CCC5=CC(=O)CC[C@]5(C)[C@H]4CC[C@@]32C)[C@H](O)O1 [ANASTOMOSACETAL C]
Activity (P388): inactive
Activity (Artemia): Non-toxic

CC(C)[C@H]1CC[C@H]([C@@]2(O)CC[C@H]3[C@@H]4CC[C@H]5CC(=O)CC[C@]5(C)[C@H]4CC[C@@]32C)[C@H](O)O1 [ANASTOMOSACETAL D]
Activity (P388): inactive
Activity (Artemia): Non-toxic
